# Results as given in patent publication US11553713B2, “Polyalcohol, carbohydrate, nucleobase and nucleotide compositions and uses thereof” (Chunbo Zhang, priority 2015, dated 2023).
# Where “and” joins values, the source holds several entries; their conditions need not be identical. Equal entries are not always repeated.
# Tests used:
# [1] = tested on: mosquitoes; assay: Toxicity of rFOH by air exposure (container protected with a net to prevent ingestion); type: in vivo
# Description: The CPDA contained 3.33 g sodium citrate, 0.376 g citric acid, 4.02 g glucose, 0.28 g sodium monobasic phosphate, and 0.346 g adenine in 1 liter of solution. (2R)-3-fluoropropane-1,2-diol (rFOH) was used as the active agent at a concentration of 1%.
# 100 mosquitoes were placed in a 6-liter cage with a container containing 1% rFOH in 10% sucrose with CPDA for 48 hours at room temperature (25-28° C.). The container was protected with a net to prevent ingestion of rFOH by the mosquitoes. […] The same result was obtained even when 10% of rFOH was used.
# [2] = tested on: female mosquitoes; assay: Efficacy by ingestion: feeder test in 6-liter cage, death rate of female mosquitoes; type: in vivo; settings: for death after 24 hours of feeding: fasted 24 hours
# Excerpt: Female mosquitoes were used in the experiment because only female mosquitoes bite humans and animals and transmit infectious diseases.
# (§1) (2R)-3-fluoropropane-1,2-diol (rFOH) was used as the active agent at various concentrations. A sugar feeder containing 10% sucrose, which is a regular mosquito feeder in a laboratory setting, was used as a regular food source in free choice studies. A free choice study allows the pests to select which feeder to feed on when given two or more choices.
# In a two-choice test, a 6-liter cage was supplied with two feeders, one contained 5% rFOH and 10% sucrose in CPDA and the other one contained 10% sucrose without any rFOH or CPDA. 100 female mosquitoes were placed in the cage having the two feeders such that the mosquitoes chose freely which feeder to feed on. After 24 hours of feeding in the cage, over 80% of mosquitoes were dead. […] When the concentration of rFOH was reduced to 1% or 0.15%, its effectiveness remained the same. Over 80% of mosquitoes were dead due to 24 hours of feeding with rFOH.
# Subsequent to 24 hours of feeding, rFOH feeder was removed from the cage and a regular sugar feeder (10% sucrose) was provided. In the next day, 5-20% of residual death was observed, indicating a delayed death after rFOH ingestion.
# In a further study, mosquitoes were fasted for 24 hours before feeding to ensure that all mosquitoes have the capacity for food intake. […] Thus, fasting is not a cause of mosquito death during a series of experiments.
# The experiments determined that 0.1% rFOH was sufficient to achieve 50% death (LD50) under various conditions. In one study, 100 mosquitoes were caged in a 6-liter space and fasted for 24 hours. Subsequently, the mosquitoes were fed on two feeders giving their free choices for 0.1% rFOH containing 10% sucrose in CPDA or 10% sucrose without rFOH for 24 hours, resulting in 43% death. In a parallel study in which the cage was supplied with a single feeder, the 0.1% rFOH feeder containing 10% sucrose in CPDA, which caused 44% of death after 24 hours of feeding.
# Similar experiments as disclosed above were performed with various rFOH concentrations under various conditions. The rFOH composition contained 10% sugar in CPDA solution unless specified otherwise.
# Similar experiments as disclosed above were performed on female mosquitoes to determine LD50. The rFOH composition contained 10% sugar in CPDA solution unless specified otherwise.
# Similar experiments as disclosed above were performed on female mosquitoes using different active agents at various concentrations. The active agent composition contained 10% sugar in CPDA solution unless specified otherwise.
# [3] = tested on: male mosquitoes; assay: Efficacy by ingestion: feeder test, death rate of male mosquitoes; type: in vivo; settings: 0.1% rFOH, 10% sugar in CPDA, 24 hrs, 24 hrs fasting, sugar feeder provided for free choice
# Description: as §1
# Similar experiments as disclosed above were performed on female mosquitoes and male mosquitoes. The rFOH composition contained 10% sugar in CPDA solution unless specified otherwise.
# [4] = tested on: Escherishia coli DH5α transformed with a pcDNA3 plasmid (DH5P); assay: MIC test, broth microdilution (CLSI M07-A9); type: cell-based; settings: Tryptic soy broth, 37° C. for 24 hrs
# Description: (§2) The effects of pesticides disclosed herein on various bacteria were tested by determining the minimal inhibitory concentration (MIC) of the pesticides. MIC of an antimicrobial agent is the lowest concentration of the antimicrobial agent that inhibits a given bacterial isolate from multiplying and producing visible growth in the test system. The MIC of rFOH and BrOH was determined in the laboratory by incubating a known quantity of bacteria with a series of dilutions of the active agents and comparing their effects with those of known antimicrobial agents. Table 6 lists the representative bacterial strains and the conditions in MIC tests. Antimicrobial tests of the active agents were conducted according to “Methods for Dilution Antimicrobial Susceptibility Tests for Bacteria That Grow Aerobically” by Clinical and Laboratory Standards Institute (CLSI) (CLSI document M07-A9, 2012). In the study, methicillin/oxacillin resistant Staphylococcus aureus (MRSA) strain (ATCC 43300) was routinely under screening with 4 ug/ml oxacillin. Escherishia coli DH5α was a nonpathogenic laboratory strain. […] When the DH5α/plasmid (DH5P) colony was used, the colony was maintained in the presence of 100 ug/ml ampicillin.
# (§3) MIC tests were conducted in 96 well microtiter plates with a total volume of 150 ul broth in each well. The directly colony suspension method (CLSI document M07-A9, 2012) was applied to obtain MIC for antimicrobial tests of the active agents. After colonies were freshly incubated overnight, colonies were suspended in sterile water to adjust the inoculum to a turbidity equivalent to a 0.5 McFarland standard (corresponding to approximately 1.5×10^8 CFU/ml). Within 10 minutes, the inoculum was adjusted by dilution in broth to reach a final concentration of 5×10^5 CFU/ml. A series of various concentrations of the active agents were applied to determine the MIC. In the same microtiter plate, an internal standard formulated by a concentration series of standard antibiotic agent was incubated in parallels to allow for back-to-back comparison.
# [5] = tested on: Escherishia coli DH5α; assay: MIC test, broth microdilution (CLSI M07-A9); type: cell-based; settings: Tryptic soy broth, 37° C. for 24 hrs
# Description: as §2, §3
# [6] = tested on: Methicillin/oxacillin resistant Staphylococcus aureus (MRSA) strain (ATCC 43300); assay: MIC test, broth microdilution (CLSI M07-A9); type: cell-based; settings: Mueller Hinton broth with 2% NaCl and 50 ug/ml CaCl2, 35° C. for 24 hrs
# Description: as §2, §3
smiles,measurement,setting,value
"OC[C@@H](O)CF [rFOH, (2R)-3-fluoropropane-1,2-diol]",death of mosquito by air exposure,"[1]; 1% rFOH in 10% sucrose with CPDA, container protected with net, 48 hours, room temperature (25-28° C.)",No death
same,death of pests when exposed but not ingested,"[1]; concentration 100-fold as high as the LD50, not ingested",no death
same,Death Rate,"[2]; 0.1% rFOH, 5% sugar, CPDA, 5% maltose, 24 hrs, 24 hrs fasting, sugar feeder provided for free choice",54%
same,Death Rate,"[2]; 0.1% rFOH, 5% sugar, CPDA, 25% Maple Syrup, 24 hrs, 24 hrs fasting, sugar feeder provided for free choice",26-47%
same,Death Rate,"[2]; 0.1% rFOH, 5% sugar, CPDA, 50% corn syrup, 24 hrs, 24 hrs fasting, sugar feeder provided for free choice",22-30%
same,death after 24 hours of feeding,"[2]; 0.1% rFOH, 10% sucrose in CPDA, free choice with 10% sucrose feeder",43%
same,death after 24 hours of feeding,"[2]; 0.1% rFOH, 10% sucrose in CPDA, single feeder",44%
same,Death Rate,"[2]; 0.1% rFOH, 10% sugar in CPDA, 24 hrs, 24 hrs fasting, sugar feeder not provided",65%
same,Death Rate,"[2]; 0.1% rFOH, 10% sugar in CPDA, 24 hrs, 24 hrs fasting, sugar plus CPDA feeder provided for free choice",59-80%
same,Death Rate,"[2]; 0.1% rFOH, 10% sugar in CPDA, 24 hrs, not fasted, sugar feeder provided for free choice",64%
same,Death Rate,"[2]; 0.1% rFOH, 10% sugar, no CPDA, 24 hrs, 24 hrs fasting, sugar feeder provided for free choice",44-50%
same,total death rate incl. residual death,"[2]; 0.1% rFOH, rFOH feeder replaced by sugar feeder, residual death within next 24 hours included",46-64%
same,death of female mosquitoes after 24 hours of feeding,[2]; 0.15% rFOH,more than 90%
same,Death Rate,"[2]; 0.15% rFOH, 10% sucrose in CPDA, 24 hours feeding, two-choice with 10% sucrose feeder",over 80%
same,Death Rate,"[2]; 0.15% rFOH, 10% sugar in CPDA, 24 hrs, 24 hrs fasting, sugar feeder not provided",95-98%
same,Death Rate,"[2]; 0.15% rFOH, 10% sugar in CPDA, 24 hrs, 24 hrs fasting, sugar feeder provided for free choice",55-80%
same,time to death after ingestion,"[2]; 0.15% rFOH, female mosquitoes",2 to 5 h
same,Death Rate,"[2]; 1% rFOH, 10% sucrose in CPDA, 24 hours feeding, two-choice with 10% sucrose feeder",over 80%
same,Death Rate,"[2]; 5% rFOH, 10% sugar in CPDA, 24 hrs, not fasted, sugar feeder not provided",94%
same,residual death in the next day,"[2]; after 24 hours feeding rFOH feeder removed, regular sugar feeder (10% sucrose) provided",5-20%
same,rFOH per mosquito corresponding to 0.15% rFOH,"[2]; assuming a female mosquito ingests as much as 0.6 μl of the composition, >90% death",0.001 mg
same,Death Rate,[3],95%
same,MIC,[4],0.4%
same,MIC,[5],0.4% and 0.43%
same,MIC,[6],0.4%
